According to ChEMBL document CHEMBL4732174, “Discovery of 6-(7-Nitro-2,1,3-benzoxadiazol-4-ylthio)hexanol Derivatives as Glutathione Transferase Inhibitors with Favorable Selectivity and Tolerated Toxicity” (J Med Chem, 2021):

Tests used:
[1] = target: Glutathione S-transferase P (Homo sapiens, UniProt P09211); experiment: Inhibition of GSTP1-1 (unknown origin) using reduced GSH and CDNB as substrate incubated for 10 mins followed by substrate addition by microplate reader analysis
[2] = target: T1, Glutathione S-transferase Mu 2 (Homo sapiens, UniProt P28161); experiment: Inhibition of GSTM2-2 (unknown origin) using reduced GSH and CDNB as substrate incubated for 10 mins followed by substrate addition by microplate reader analysis
T1 sequence (P28161 whole entry): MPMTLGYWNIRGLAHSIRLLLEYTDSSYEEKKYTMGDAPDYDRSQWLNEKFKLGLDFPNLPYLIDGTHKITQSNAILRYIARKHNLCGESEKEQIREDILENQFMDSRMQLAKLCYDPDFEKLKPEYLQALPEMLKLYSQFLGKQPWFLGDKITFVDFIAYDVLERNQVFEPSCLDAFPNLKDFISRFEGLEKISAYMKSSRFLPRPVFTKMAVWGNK

HUVEC = experiment: Cytotoxicity against HUVEC assessed as reduction in cell viability incubated for 72 hrs by MTT assay; type: cell-based; conditions: Homo sapiens
L02 = experiment: Cytotoxicity against human L02 cells assessed as reduction in cell viability incubated for 72 hrs by MTT assay; type: cell-based; conditions: L02, 72 h
A549 = experiment: Antiproliferative activity against human A549 cells assessed as inhibition of cell proliferation incubated for 72 hrs by MTT assay; type: functional, cell-based; conditions: A549, 72 h
[3] = Antiproliferative activity against […] B16 cells assessed as inhibition of cell proliferation incubated for 72 hrs by MTT assay; type: functional, cell-based; conditions: B16, 72 h
143B [4] = experiment: Antiproliferative activity against human 143B cells assessed as inhibition of cell proliferation incubated for 72 hrs by MTT assay; type: functional, cell-based
HOS = experiment: Antiproliferative activity against human HOS cells assessed as inhibition of cell proliferation incubated for 72 hrs by MTT assay; type: functional, cell-based
[5] = Water solubility of the compound measured by UV-Visible spectral analysis; type: physicochemical; conditions: buffer
143B [6] = experiment: Antitumor activity against human 143B cells xenografted in BALB/c nude mouse assessed as tumor growth inhibition at 5 mg/kg, po administered once daily for 28 consecutive days relative to control; type: functional; conditions: 672 h, time 28 day, read-out: TGI

Sequence of Glutathione S-transferase P (P09211 whole entry): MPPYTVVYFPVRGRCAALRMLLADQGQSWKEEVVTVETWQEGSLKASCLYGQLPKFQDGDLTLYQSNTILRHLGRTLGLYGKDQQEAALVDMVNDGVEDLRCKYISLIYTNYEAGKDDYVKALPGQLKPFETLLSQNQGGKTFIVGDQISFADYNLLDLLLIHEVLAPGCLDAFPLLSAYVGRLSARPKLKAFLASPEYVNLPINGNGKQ

Row | SMILES | IC50 [1] [nM] | IC50 [2] [nM] | IC50 (HUVEC) [nM] | IC50 (L02) [nM] | IC50 (A549) [nM] | IC50 [3] [nM] | IC50 (143B [4]) [nM] | IC50 (HOS) [nM] | solubility [5] | inhibition in vivo at 5 mg/kg (143B [6]) [%]
1 | O=C(CCC(=O)OCCCCCCSc1ccc([N+](=O)[O-])c2nonc12)Nc1ccc(C(F)(F)F)cc1 | 5050 | 90 | 1390 | 5010 | 4020 | 1120 | 2100 | 3200 | – | –
2 | O=C(CCC(=O)OCCCCCCSc1ccc([N+](=O)[O-])c2nonc12)Nc1ccccc1F | 9890 | 350 | 840 | 4270 | 2440 | 2120 | 3030 | 2350 | – | –
3 | O=C(CCC(=O)OCCCCCCSc1ccc([N+](=O)[O-])c2nonc12)Nc1ccc(F)cc1 | 8570 | 320 | 1740 | 6460 | 6300 | 2020 | 2500 | 2080 | – | –
4 | Cc1ccccc1NC(=O)CCC(=O)OCCCCCCSc1ccc([N+](=O)[O-])c2nonc12 | 4100 | 440 | 1410 | 9490 | 4200 | 6490 | 4660 | 4020 | – | –
5 | O=C(CCC(=O)OCCCCCCSc1ccc([N+](=O)[O-])c2nonc12)Nc1cccc(Cl)c1 | 28800 | 1100 | 1090 | 6930 | 5290 | 3110 | 2890 | 1920 | – | –
6 | O=C(O)CCC(=O)OCCCCCCSc1ccc([N+](=O)[O-])c2nonc12 | 530 | 160 | 740 | 1890 | 3640 | 3650 | 2830 | 8740 | – | –
7 | O=C(CCC(=O)OCCCCCCSc1ccc([N+](=O)[O-])c2nonc12)NCCN1CCCC1 | 460 | 200 | 6070 | 6580 | 3240 | 3500 | 5580 | 3300 | Soluble | –
8 | O=C(CCC(=O)N1CCOCC1)OCCCCCCSc1ccc([N+](=O)[O-])c2nonc12 | 330 | 170 | 5340 | 3240 | 1670 | 820 | 1530 | 1010 | – | –
9 | COc1ccc(NC(=O)CCC(=O)OCCCCCCSc2ccc([N+](=O)[O-])c3nonc23)cc1 | 420 | 130 | 1590 | 8170 | 6480 | 2870 | 3060 | 1800 | – | –
10 | O=C(CCC(=O)OCCCCCCSc1ccc([N+](=O)[O-])c2nonc12)Nc1ccc(Br)cc1 | 5090 | 32000 | 1610 | 4330 | 3340 | 2640 | 2710 | 2160 | – | –
11 | O=C(CCC(=O)OCCCCCCSc1ccc([N+](=O)[O-])c2nonc12)Nc1ccc(F)c(Cl)c1 | 9850 | 470 | 2320 | 4570 | 3210 | 4170 | 2990 | 2800 | – | –
12 | COc1ccc(NC(=O)CCC(=O)OCCCCCCSc2ccc([N+](=O)[O-])c3nonc23)cc1OC | 6470 | 360 | 870 | 4100 | 3890 | 2350 | 2770 | 1390 | – | –
13 | O=C(CCC(=O)N1CCCCC1)OCCCCCCSc1ccc([N+](=O)[O-])c2nonc12 | 500 | 110 | 1990 | 3970 | 2510 | 860 | 1900 | 1790 | – | –
14 | O=C(CCC(=O)OCCCCCCSc1ccc([N+](=O)[O-])c2nonc12)NCCN1CCOCC1 | 35000 | 100 | 1070 | 3010 | 2150 | 1800 | 2820 | 1810 | Soluble | –
15 | CCN(CC)CCCNC(=O)CCC(=O)OCCCCCCSc1ccc([N+](=O)[O-])c2nonc12 | 9550 | 440 | 2950 | 6770 | 2570 | 2940 | 3440 | 9060 | Soluble | –
16 | CN(C)CCNC(=O)CCC(=O)OCCCCCCSc1ccc([N+](=O)[O-])c2nonc12 | 540 | 160 | 2160 | 5980 | 5550 | 1140 | 2190 | 5020 | Soluble | –
17 | O=C(CCC(=O)OCCCCCCSc1ccc([N+](=O)[O-])c2nonc12)Nc1ccccc1Cl | 15500 | 330 | 2950 | 5850 | 2750 | 2390 | 2430 | – | – | –
18 | O=C(CCC(=O)OCCCCCCSc1ccc([N+](=O)[O-])c2nonc12)Nc1ccccc1 | 10200 | 700 | 2490 | 6490 | 1960 | 1260 | 3850 | 2120 | – | –
19 | O=[N+]([O-])c1ccc(SCCCCCCO)c2nonc12 | – | 20 | – | – | 2880 | 1350 | 4080 | 1240 | – | 38.6
20 | COc1ccccc1NC(=O)CCC(=O)OCCCCCCSc1ccc([N+](=O)[O-])c2nonc12 | 4050 | 280 | 1610 | 4490 | 1870 | 1380 | 2120 | 2850 | – | –
21 | Cc1ccc(NC(=O)CCC(=O)OCCCCCCSc2ccc([N+](=O)[O-])c3nonc23)cc1 | 6800 | 390 | 2340 | 7320 | 5240 | 1950 | 3250 | 3340 | – | –
